The record followed here is patent US9278922B2 (ABBVIE INC., priority 2009, dated 2016).

The test relates to HCV 1b-Con-1 replicon. Description: HCV 1b-Con-1 replicon assay (luciferase reporter gene, HuH-7 cells). The test is classed as cell-based, Hepatitis C virus (HCV) genotype 1b-Con1. To be noted: Hepatitis C virus, Huh-7, luciferase reporter gene activity in the replicon, in the presence of 5% FBS.

Usually EC50 stands for the concentration giving half of the maximal effect. On to `COC(=O)N[C@H](C(=O)N1CCC[C@H]1C(=O)Nc1ccc(CN(Cc2ccc(NC(=O)[C@@H]3CCCN3C(=O)[C@H](NC(=O)OC(C)(C)C)c3ccccc3)cc2)c2ccccc2)cc1)C(C)(C)C` [Example 74, N-(methoxycarbonyl)-3-methyl-L-valyl-N-(4-{[{4-[(1-{(2R)-2-[(tert-butoxycarbonyl)amino]-2-phenylacetyl}-L-prolyl)amino]benzyl}(phenyl)amino]methyl}phenyl)-L-prolinamide], for which the EC50 is under 1 nM.

For the compound `CCN(CC)[C@@H](C(=O)N1CCC[C@H]1C(=O)Nc1ccc(CN(Cc2ccc(NC(=O)[C@@H]3CCCN3C(=O)[C@H](NC(=O)OC)c3ccccc3)cc2)c2ccccc2)cc1)c1ccccc1` [Example 75, methyl [(1R)-2-{(2S)-2-[(4-{[{-4-[({(2S)-1-[(2R)-2-(diethylamino)-2-phenylacetyl]pyrrolidin-2-yl}carbonyl)amino]benzyl}(phenyl)amino]methyl}phenyl)carbamoyl]pyrrolidin-1-yl}-2-oxo-1-phenylethyl]carbamate], the EC50 is under 1 nM.

`COC(=O)N[C@@H](C(=O)N1CCC[C@H]1C(=O)Nc1ccc(CN(Cc2ccc(NC(=O)[C@@H]3CCCN3C(=O)[C@@H]3CCCO3)cc2)c2ccccc2)cc1)c1ccccc1` [Example 76, methyl {(1R)-2-oxo-1-phenyl-2-[(2S)-2-({4-[(phenyl{4-[({(2S)-1-[(2S)-tetrahydrofuran-2-ylcarbonyl]pyrrolidin-2-yl}carbonyl)amino]benzyl}amino)methyl]phenyl}carbamoyl)pyrrolidin-1-yl]ethyl}carbamate]: the half-maximal effective concentration (EC50) is under 1 nM.

As for `COC(=O)N[C@H](C(=O)N1CCC[C@H]1C(=O)Nc1ccc(CN(Cc2ccc(NC(=O)[C@@H]3CCCN3C(=O)[C@H](N)c3ccccc3)cc2)c2ccccc2)cc1)C(C)(C)C` [Example 77, N-(methoxycarbonyl)-3-methyl-L-valyl-N-[4-({[4-({1-[(2R)-2-amino-2-phenylacetyl]-L-proly}amino)benzyl](phenyl)amino}methyl)phenyl]-L-prolinamide], the EC50 is under 1 nM.

In the case of `COC(=O)N[C@H](C(=O)N1CCC[C@H]1c1nc2cc(CN(Cc3ccc4[nH]c([C@@H]5CCCN5C(=O)[C@@H](NC(=O)OC)[C@H]5CCOC5)nc4c3)c3ccccc3)ccc2[nH]1)[C@H]1CCOC1` [Example 78, dimethyl {(phenylimino)bis[methanediyl-1H-benzimidazole-5,2-diyl(2S)pyrrolidine-2,1-diyl{(1S)-2-oxo-1-[(3R)-tetrahydrofuran-3-yl]ethane-2,1-diyl}]}biscarbamate], the concentration for a half-maximal effect (EC50) is under 1 nM.

For the compound `CC(=O)N[C@H](C(=O)N1CCC[C@H]1C(=O)Nc1ccc(CN(Cc2ccc(NC(=O)[C@@H]3CCCN3C(=O)[C@@H](NC(C)=O)C(C)(C)C)cc2)c2ccccc2)cc1)C(C)(C)C` [Example 79, (2S,2′S)-N,N′-[(phenylimino)bis(methanediylbenzene-4,1-diyl)]bis {1-[(2S)-2-(acetylamino)-3,3-dimethylbutanoyl]pyrrolidine-2-carboxamide}], the EC50 fell in the range of 10 to 100 nM.

Consider `CN(C)C(=O)N[C@H](C(=O)N1CCC[C@H]1C(=O)Nc1ccc(CN(Cc2ccc(NC(=O)[C@@H]3CCCN3C(=O)[C@@H](NC(=O)N(C)C)C(C)(C)C)cc2)c2ccccc2)cc1)C(C)(C)C` [Example 80, (2S,2′S)-N,N′-[(phenylimino)bis(methanediylbenzene-4,1-diyl)]bis(1-{(2S)-2-[(dimethylcarbamoyl)amino]-3,3-dimethylbutanoyl}pyrrolidine-2-carboxamide)], for which the EC50 is 10 to 100 nM.

Regarding `CCN(CC)[C@@H](C(=O)N1CCC[C@H]1C(=O)Nc1ccc(CN(Cc2ccc(NC(=O)[C@@H]3CCCN3C(=O)[C@@H](NC(=O)OC)[C@H]3CCOC3)cc2)c2ccc(F)cc2)cc1)c1ccccc1` [Example 81, methyl {(1S)-2-{(2S)-2-[(4-{[{4-[({(2S)-1-[(2R)-2-(diethylamino)-2-phenylacetyl]pyrrolidin-2-yl}carbonyl)amino]benzy}(4-fluorophenyl)amino]methyl}phenyl)carbamoyl]pyrrolidin-1-yl}-2-oxo-1-[(3R)-tetrahydrofuran-3-yl]ethyl}carbamate], the EC50 is under 1 nM.

With `CCN(CC)[C@@H](C(=O)N1CCC[C@H]1C(=O)Nc1ccc(CN(Cc2ccc(NC(=O)[C@@H]3CCCN3C(=O)[C@@H](NC(=O)OC)C(C)(C)C)cc2)c2ccc(F)cc2)cc1)c1ccccc1` [Example 82, N-(methoxycarbonyl)-3-methyl-L-valyl-N-[4-({[4-({1-[(2R)-2-(diethylamino)-2-phenylacetyl]-L-prolyl}amino)benzyl](4-fluorophenyl)amino}methyl)phenyl]-L-prolinamide], the EC50 was under 1 nM.

On to `CCN(CC)[C@@H](C(=O)N1CCC[C@H]1C(=O)Nc1ccc(CN(Cc2ccc(NC(=O)[C@@H]3CCCN3C(=O)[C@@H](c3ccccc3)N3CCCC3)cc2)c2ccc(F)cc2)cc1)c1ccccc1` [Example 83, (2S)-1-[(2R)-2-(diethylamino)-2-phenylacetyl]-N-(4-{[(4-fluorophenyl){4-[({(2S)-1-[(2R)-2-phenyl-2-pyrrolidin-1-ylacetyl]pyrrolidin-2-yl}carbonyl)amino]benzyl}amino]methyl}phenyl)pyrrolidine-2-carboxamide], for which the half-maximal effective concentration (EC50) is under 1 nM.

Take `CCN(CC)[C@@H](C(=O)N1CCC[C@H]1C(=O)Nc1ccc(CN(Cc2ccc(NC(=O)[C@@H]3CCCN3C(=O)[C@@H](NC(=O)OC)[C@@H](C)OC)cc2)c2ccc(F)cc2)cc1)c1ccccc1` [Example 84, N-(methoxycarbonyl)-O-methyl-L-threonyl-N-[4-({[4-({1-[(2R)-2-(diethylamino)-2-phenylacetyl]-L-prolyl}amino)benzyl](4-fluorophenyl)amino}methyl)phenyl]-L-prolinamide]: the EC50 is under 1 nM.

For `O=C(Nc1ccc(CN(Cc2ccc(NC(=O)[C@@H]3CCCN3C(=O)[C@@H](c3ccccc3)N3CCCC3)cc2)c2ccc(F)cc2)cc1)[C@@H]1CCCN1C(=O)[C@@H](c1ccccc1)N1CCCC1` [Example 85, (2S,2′S)-N,N′-{[(4-fluorophenyl)imino]bis(methanediylbenzene-4,1-diyl)}bis{1-[(2R)-2-phenyl-2-pyrrolidin-1-ylacetyl]pyrrolidine-2-carboxamide}], the EC50 was under 1 nM.

As to `COC(=O)N[C@H](C(=O)N1CCC[C@H]1C(=O)Nc1ccc(CN(Cc2ccc(NC(=O)[C@@H]3CCCN3C(=O)[C@@H](NC(=O)OC)[C@H]3CCOC3)cc2)c2ccc(F)cc2)cc1)[C@H]1CCOC1` [Example 86, dimethyl {[(4-fluorophenyl)imino]bis[methanediylbenzene-4,1-diylcarbamoyl(2 S)pyrrolidine-2,1-diyl{(1S)-2-oxo-1-[(3R)-tetrahydrofuran-3-yl]ethane-2,1-diyl}]}biscarbamate], the EC50 is under 1 nM.

Turning to `COC(=O)N[C@H](C(=O)N1CCC[C@H]1C(=O)Nc1ccc(CN(Cc2ccc(NC(=O)[C@@H]3CCCN3C(=O)[C@H](NC(=O)[C@@H]3CCCO3)c3ccccc3)cc2)c2ccccc2)cc1)C(C)(C)C` [Example 87, N-(methoxycarbonyl)-3-methyl-L-valyl-N-[4-({phenyl[4-({1-[(2R)-2-phenyl-2-{[(2S)-tetrahydrofuran-2-ylcarbonyl]amino}acetyl]-L-prolyl}amino)benzyl]amino}methyl)phenyl]-L-prolinamide], the 50% effective concentration (EC50) is under 1 nM.
